Assay results taken from BindingDB's records for doi:10.1016/j.bmcl.2004.05.088 (Eli Lilly, 2004).
Counter-ions that a name gives are not always drawn.

Columns and labels:
Experiment in all cases: CDK Kinase Inhibition Assay
[1] = target: Cyclin-dependent kinase 2/G1/S-specific cyclin-E1 (Homo sapiens, UniProt P24941); conditions: 25 °C
Description: (§1) In vitro CDK assay using purified enzyme, was incubated at room temperature with substrate, and test compounds in the presence of ATP/[gamma-33P]ATP. 33P incorporation was measured with a Top Count (Packard). IC50 is the inhibitor concentration which inhibits 50% of kinase activity that catalyzes the transfer of the terminal phosphate from 33P labeled ATP to the substrate.

[2] = target: Cyclin-dependent kinase 4/G1/S-specific cyclin-D1 (Homo sapiens, UniProt P11802); conditions: pH 7; 22 °C
Sequence of Cyclin-dependent kinase 4/G1/S-specific cyclin-D1 (P11802 whole entry): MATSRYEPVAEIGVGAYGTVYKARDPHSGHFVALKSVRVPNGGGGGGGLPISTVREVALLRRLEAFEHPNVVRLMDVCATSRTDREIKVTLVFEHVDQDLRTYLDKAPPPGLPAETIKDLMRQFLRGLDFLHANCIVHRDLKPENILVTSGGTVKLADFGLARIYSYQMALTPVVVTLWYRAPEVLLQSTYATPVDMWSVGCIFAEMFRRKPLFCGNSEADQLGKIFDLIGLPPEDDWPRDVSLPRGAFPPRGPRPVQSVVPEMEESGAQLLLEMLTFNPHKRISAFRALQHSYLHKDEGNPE
Sequence of Cyclin-dependent kinase 4/G1/S-specific cyclin-D1 (P24385 whole entry, further chain): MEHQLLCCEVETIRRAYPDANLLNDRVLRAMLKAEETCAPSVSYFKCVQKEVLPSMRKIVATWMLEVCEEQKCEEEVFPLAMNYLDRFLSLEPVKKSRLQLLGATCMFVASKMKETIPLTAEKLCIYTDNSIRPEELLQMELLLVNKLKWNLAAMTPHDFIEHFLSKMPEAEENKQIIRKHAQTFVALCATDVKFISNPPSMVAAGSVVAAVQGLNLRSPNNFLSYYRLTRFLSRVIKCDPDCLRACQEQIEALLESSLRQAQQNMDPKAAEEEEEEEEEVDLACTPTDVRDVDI
Description: as §1

[3] = target: cAMP-dependent protein kinase catalytic subunit alpha (Bos taurus, UniProt P00517); conditions: 25 °C

Row | IC50 [1] [nM] | IC50 [2] [nM] | IC50 [3] [nM] | SMILES
1 | 38 | 27 |  | O=C1NC(=O)c2c1c1c3ccccc3[nH]c1c1c2c2cccc3c2n1CCNC3 [1,4,14,24-tetraazaheptacyclo[16.8.1.0^{2,17}.0^{3,11}.0^{5,10}.0^{12,16}.0^{22,27}]heptacosa-2(17),3(11),5(10),6,8,12(16),18(27),19,21-nonaene-13,15-dione hydrochloride]
2 |  | 160 |  | O=C1NC(=O)c2c1c1c3ccccc3[nH]c1c1c2c2cccc3c2n1CCNCC3 [1,4,14,25-tetraazaheptacyclo[16.9.1.0^{2,17}.0^{3,11}.0^{5,10}.0^{12,16}.0^{22,28}]octacosa-2(17),3(11),5(10),6,8,12(16),18(28),19,21-nonaene-13,15-dione hydrochloride]
3 |  | 44 |  | O=C1NC(=O)c2c1c1c3ccc(C(F)(F)F)c(CO)c3[nH]c1c1c2c2cccc3c2n1CCNC3 [6-(hydroxymethyl)-7-(trifluoromethyl)-1,4,14,24-tetraazaheptacyclo[16.8.1.0^{2,17}.0^{3,11}.0^{5,10}.0^{12,16}.0^{22,27}]heptacosa-2(17),3(11),5(10),6,8,12(16),18(27),19,21-nonaene-13,15-dione hydrochloride]
4 |  | 110 | > 2000 | O=C1NC(=O)c2c1c1c3cc(F)c(F)cc3[nH]c1c1c2c2cccc3c2n1CCNC3 [7,8-difluoro-1,4,14,24-tetraazaheptacyclo[16.8.1.0^{2,17}.0^{3,11}.0^{5,10}.0^{12,16}.0^{22,27}]heptacosa-2(17),3(11),5(10),6,8,12(16),18(27),19,21-nonaene-13,15-dione hydrochloride]
5 |  | 69 | > 2000 | O=C1NC(=O)c2c1c1c3ccc(C(F)(F)F)cc3[nH]c1c1c2c2cccc3c2n1CCNC3 [7-(trifluoromethyl)-1,4,14,24-tetraazaheptacyclo[16.8.1.0^{2,17}.0^{3,11}.0^{5,10}.0^{12,16}.0^{22,27}]heptacosa-2(17),3(11),5(10),6,8,12(16),18(27),19,21-nonaene-13,15-dione hydrochloride]
6 | 16 |  |  | O=C1NC(=O)c2c1c1c3ccc(F)cc3[nH]c1c1c2c2cccc3c2n1CCNC3 [7-fluoro-1,4,14,24-tetraazaheptacyclo[16.8.1.0^{2,17}.0^{3,11}.0^{5,10}.0^{12,16}.0^{22,27}]heptacosa-2(17),3(11),5(10),6,8,12(16),18(27),19,21-nonaene-13,15-dione hydrochloride]
7 |  | 34 |  | O=C1NC(=O)c2c1c1c3cc(F)ccc3[nH]c1c1c2c2cccc3c2n1CCNC3 [8-fluoro-1,4,14,24-tetraazaheptacyclo[16.8.1.0^{2,17}.0^{3,11}.0^{5,10}.0^{12,16}.0^{22,27}]heptacosa-2(17),3(11),5(10),6,8,12(16),18(27),19,21-nonaene-13,15-dione hydrochloride]
8 |  | 100 | > 2000 | NCC(=O)N1CCn2c3c(cccc3c3c4c(c5c6ccccc6[nH]c5c32)C(=O)NC4=O)C1 [24-(2-aminoacetyl)-1,4,14,24-tetraazaheptacyclo[16.8.1.0^{2,17}.0^{3,11}.0^{5,10}.0^{12,16}.0^{22,27}]heptacosa-2(17),3(11),5(10),6,8,12(16),18(27),19,21-nonaene-13,15-dione hydrochloride]
9 |  | 78 | > 2000 | CC(C)N1CCn2c3c(cccc3c3c4c(c5c6ccccc6[nH]c5c32)C(=O)NC4=O)C1 [24-(propan-2-yl)-1,4,14,24-tetraazaheptacyclo[16.8.1.0^{2,17}.0^{3,11}.0^{5,10}.0^{12,16}.0^{22,27}]heptacosa-2(17),3(11),5(10),6,8,12(16),18(27),19,21-nonaene-13,15-dione]
10 |  | 120 | > 2000 | Cn1cnc(S(=O)(=O)N2CCn3c4c(cccc4c4c5c(c6c7ccccc7[nH]c6c43)C(=O)NC5=O)C2)c1 [24-[(1-methyl-1H-imidazole-4-)sulfonyl]-1,4,14,24-tetraazaheptacyclo[16.8.1.0^{2,17}.0^{3,11}.0^{5,10}.0^{12,16}.0^{22,27}]heptacosa-2(17),3(11),5(10),6,8,12(16),18(27),19,21-nonaene-13,15-dione]
11 |  | 53 | > 2000 | CS(=O)(=O)N1CCn2c3c(cccc3c3c4c(c5c6ccccc6[nH]c5c32)C(=O)NC4=O)C1 [24-methanesulfonyl-1,4,14,24-tetraazaheptacyclo[16.8.1.0^{2,17}.0^{3,11}.0^{5,10}.0^{12,16}.0^{22,27}]heptacosa-2(17),3(11),5(10),6,8,12(16),18(27),19,21-nonaene-13,15-dione]
